According to patent US8563542B2 (Cyclacel Limited, priority 2007, dated 2013):
Where a name gives a salt, the structure may show the parent alone.

Target: PLK1 (Homo sapiens, UniProt P53350)
Experiment: PLK1 protein kinase assay (CDC25C phosphorylation, [γ-32P]-ATP)
Assay type: biochemical
Conditions: Table 2, PLK1 IC50; class symbols; read-out: PLK1 IC50

PLK1, sequence (P53350 whole entry): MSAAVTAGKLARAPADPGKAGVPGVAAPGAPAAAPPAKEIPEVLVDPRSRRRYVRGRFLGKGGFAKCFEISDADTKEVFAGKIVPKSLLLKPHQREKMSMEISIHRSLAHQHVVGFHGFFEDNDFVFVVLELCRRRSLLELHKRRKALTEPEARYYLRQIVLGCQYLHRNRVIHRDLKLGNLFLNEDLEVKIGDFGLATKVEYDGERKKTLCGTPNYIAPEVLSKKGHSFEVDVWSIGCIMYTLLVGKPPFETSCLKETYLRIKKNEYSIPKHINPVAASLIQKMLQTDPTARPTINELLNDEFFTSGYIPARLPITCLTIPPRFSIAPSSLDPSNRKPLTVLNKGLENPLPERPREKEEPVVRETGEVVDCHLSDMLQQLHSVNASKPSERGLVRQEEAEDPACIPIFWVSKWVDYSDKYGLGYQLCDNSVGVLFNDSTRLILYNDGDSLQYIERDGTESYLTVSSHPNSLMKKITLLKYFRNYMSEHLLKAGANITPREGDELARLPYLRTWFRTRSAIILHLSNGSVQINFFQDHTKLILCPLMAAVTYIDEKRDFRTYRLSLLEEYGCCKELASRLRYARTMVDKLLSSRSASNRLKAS

Structure (SMILES) | IC50 [µM]
COc1ccc(N2CCC(=O)N(C)c3cnc(Nc4ccc(C(=O)NC5CCCN(C)C5)cc4OC)nc32)cc1 (stereo not shown) [compound 315] | < 1
COc1ccc(N2CCC(=O)N(C)c3cnc(Nc4ccc(C(=O)NC5CCN(Cc6ccccc6)CC5)cc4OC)nc32)cc1 [compound 316, N-(1-Benzyl-piperidin-4-yl)-3-methoxy-4-[9-(4-methoxy-phenyl)-5-methyl-6-oxo-6,7,8,9-tetrahydro-5H-pyrimido[4,5-b][1,4]diazepin-2-ylamino]-benzamide] | < 1
COc1ccc(N2CCC(=O)N(C)c3cnc(Nc4ccc(C(=O)NC5CN6CCC5CC6)cc4OC)nc32)cc1 (stereo not shown) [compound 317, N-(1-Aza-bicyclo[2.2.2]oct-3-yl)-3-methoxy-4-[9-(4-methoxy-phenyl)-5-methyl-6-oxo-6,7,8,9-tetrahydro-5H-pyrimido[4,5-b][1,4]diazepin-2-ylamino]-benzamide] | < 1
COc1ccc(N2CCC(=O)N(C)c3cnc(Nc4ccc(C(=O)NC5CC(C)(C)N(C)C(C)(C)C5)cc4OC)nc32)cc1 [compound 318] | < 1
CCN(CC)CCNC(=O)c1ccc(Nc2ncc3c(n2)N(c2ccc(OC)cc2)CCC(=O)N3C)c(OC)c1 [compound 319, N-(2-Diethylamino-ethyl)-3-methoxy-4-[9-(4-methoxy-phenyl)-5-methyl-6-oxo-6,7,8,9-tetrahydro-5H-pyrimido[4,5-b][1,4]diazepin-2-ylamino]-benzamide] | < 10
COc1cc(C(=O)NCC(=O)N2CCN(C(C)C)CC2)ccc1Nc1ncc2c(n1)N(C1CCCC1)CC1(CC1)C(=O)N2C [compound 321] | < 1
COc1cc(C(=O)NC2CCN(Cc3ccccc3)C2)ccc1Nc1ncc2c(n1)N(C1CCCC1)CC1(CC1)C(=O)N2C (stereo not shown) [compound 322, N-(Benzyl-pyrrolidin-3-yl)-4-(9-cyclopentyl-5-methyl-6-oxo-6,7,8,9-tetrahydro-5H-spiro[pyrimido[4,5-b][1,4]diazepin-3,1′-cyclopropane]-2-ylamino)-3-methoxy-N-benzamide] | < 0.1
CN1CCC(NC(=O)c2ccc(Nc3ncc4c(n3)N(C3CCCC3)CC3(CC3)C(=O)N4C)c(F)c2)CC1 [compound 323, 4-(9-Cyclopentyl-5-methyl-6-oxo-6,7,8,9-tetrahydro-5H-spiro[pyrimido[4,5-b][1,4]diazepin-3,1′-cyclopropane]-2-ylamino)-3-fluoro-N-(1-methyl-piperidin-4-yl)-benzamide] | < 0.1
COc1cc(C(=O)NC2CCN(C)CC2)ccc1Nc1ncc2c(n1)N(C1CCCC1)CC1(CC1)C(=O)N2C [compound 341, 4-(9-Cyclopentyl-5-methyl-6-oxo-6,7,8,9-tetrahydro-5H-spiro[pyrimido[4,5-b][1,4]diazepin-3,1′-cyclopropane]-2-ylamino)-3-methoxy-N-(1-methyl-piperidin-4-yl)-benzamide mesylate] | < 0.1
COc1cc(C(=O)NC2CCN(CC(=O)O)CC2)ccc1Nc1ncc2c(n1)N(C1CCCC1)CCC(=O)N2C [compound 343] | < 1
COc1cc(C(=O)NC2CCN(C(C)C)CC2)ccc1Nc1ncc2c(n1)N(C1CCCC1)CCC(=O)N2C [compound 344, 4-(9-Cyclopentyl-5-methyl-6-oxo-6,7,8,9-tetrahydro-5H-pyrimido[4,5-b][1,4]diazepin-2-ylamino)-N-(1-isopropyl-piperidin-4-yl)-3-methoxy-benzamide] | < 0.1

Target: T1, AA (Homo sapiens, UniProt O14965)
T1 sequence (O14965 1-403): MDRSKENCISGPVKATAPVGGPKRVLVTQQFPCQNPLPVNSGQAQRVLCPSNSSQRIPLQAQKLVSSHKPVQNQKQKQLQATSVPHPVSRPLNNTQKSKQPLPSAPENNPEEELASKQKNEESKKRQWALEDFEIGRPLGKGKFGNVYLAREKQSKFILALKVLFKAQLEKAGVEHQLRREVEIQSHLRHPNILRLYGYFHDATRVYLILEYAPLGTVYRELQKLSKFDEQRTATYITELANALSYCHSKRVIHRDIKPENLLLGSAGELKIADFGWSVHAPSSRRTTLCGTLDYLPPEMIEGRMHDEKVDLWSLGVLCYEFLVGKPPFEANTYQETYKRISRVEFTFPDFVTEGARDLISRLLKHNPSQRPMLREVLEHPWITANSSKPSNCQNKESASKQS
Experiment: AA IC50 (Table 1; no method given)
Assay type: biochemical
Conditions: Table 1; read-out: AA IC50

Structure (SMILES) | IC50 [µM]
COc1cc(C(=O)O)ccc1Nc1ncc2c(n1)N(C1CCCCC1)CCC(=O)N2 [compound 9, 4-(9-Cyclohexyl-6-oxo-6,7,8,9-tetrahydro-5H-pyrimido[4,5-b][1,4]diazepin-2-ylamino)-3-methoxy-benzoic acid] | 1 to 10

Same assay, conditions: Table 2, AurA IC50; class symbols; read-out: AurA IC50

Structure (SMILES) | IC50 [µM]
CN1C(=O)CCN(C(C)(C)C)c2nc(Nc3ccc(C(=O)O)cc3)ncc21 [compound 43, 4-(9-tert-Butyl-5-methyl-6-oxo-6,7,8,9-tetrahydro-5H-pyrimido[4,5-b][1,4]diazepin-2-ylamino)-benzoic acid] | < 1
COc1cc(C(=O)NC2CCN(C)CC2)ccc1Nc1ncc2c(n1)N(Cc1ccc(OC)c(OC)c1)CC(C)C(=O)N2C (stereo not shown) [compound 44, 4-[9-(3,4-Dimethoxy-benzyl)-5,7-dimethyl-6-oxo-6,7,8,9-tetrahydro-5H-pyrimido[4,5-b][1,4]diazepin-2-ylamino]-3-methoxy-N-(1-methyl-piperidin-4-yl)-benzamide] | < 10
COc1ccc(CN2CC(C)C(=O)N(C)c3cnc(Nc4ccc(C(=O)O)cc4)nc32)cc1OC (stereo not shown) [compound 45, 4-[9-(3,4-Dimethoxy-benzyl)-5,7-dimethyl-6-oxo-6,7,8,9-tetrahydro-5H-pyrimido[4,5-b][1,4]diazepin-2-ylamino]-benzoic acid] | < 10
CN1CCC(NC(=O)c2ccc(Nc3ncc4c(n3)N(C3CCCC3)CCC(=O)N4C)cc2)CC1 [compound 64, 4-(9-Cyclopentyl-5-methyl-6-oxo-6,7,8,9-tetrahydro-5H-pyrimido[4,5-b][1,4]diazepin-2-ylamino)-N-(1-methyl-piperidin-4-yl)-benzamide] | < 0.1
Cc1cc(Nc2ncc3c(n2)N(C2CCCC2)CCC(=O)N3C)ccc1Cl [compound 72, 2-(4-Chloro-3-methyl-phenylamino)-9-cyclopentyl-5-methyl-5,7,8,9-tetrahydro-pyrimido[4,5-b][1,4]diazepin-6-one] | < 1
CN1C(=O)CCN(c2ccccc2F)c2nc(Nc3ccc4c(c3)CS(=O)(=O)C4)ncc21 [compound 73, 2-(2,2-Dioxo-2,3-dihydro-1H-2lambda*6*- benzo[c]thiophen-5-ylamino)-9-(2-fluoro-phenyl)-5-methyl-5,7,8,9-tetrahydro-pyrimido[4,5-b][1,4]diazepin-6-one] | < 0.1
CN1C(=O)CCN(c2ccccc2)c2nc(Nc3ccc4c(c3)CS(=O)(=O)C4)ncc21 [compound 75, 2-(2,2-Dioxo-2,3-dihydro-1H-2lambda*6*- benzo[c]thiophen-5-ylamino)-5-methyl-9-phenyl-5,7,8,9-tetrahydro-pyrimido[4,5-b][1,4]diazepin-6-one] | < 0.1
CCC(CC)N1CCC(=O)N(C)c2cnc(Nc3ccc4c(c3)CS(=O)(=O)C4)nc21 [compound 79, 2-(2,2-Dioxo-2,3-dihydro-1H-2lambda*6*- benzo[c]thiophen-5-ylamino)-9-(1-ethyl-propyl)-5-methyl-5,7,8,9-tetrahydro-pyrimido[4,5-b][1,4]diazepin-6-one] | < 0.1
CC(C)C1CC(=O)N(C)c2cnc(Nc3ccc4c(c3)CS(=O)(=O)C4)nc2N1C1CCCC1 (stereo not shown) [compound 80, 9-Cyclopentyl-2-(2,2-dioxo-2,3-dihydro-1H-2lambda*6*-benzo[c]thiophen-5-ylamino)-8-isopropyl-5-methyl-5,7,8,9-tetrahydro-pyrimido[4,5-b][1,4]diazepin-6-one] | < 1
CN1C(=O)CCN(C2CCOCC2)c2nc(Nc3ccc4c(c3)CS(=O)(=O)C4)ncc21 [compound 81, 2-(2,2-Dioxo-2,3-dihydro-1H-2lambda*6*- benzo[c]thiophen-5-ylamino)-5-methyl-9-(tetrahydro-pyran-4-yl)-5,7,8,9-tetrahydro-pyrimido[4,5-b][1,4]diazepin-6-one] | < 1
CN1C(=O)CCN(Cc2ccccc2)c2nc(Nc3ccc4c(c3)CS(=O)(=O)C4)ncc21 [compound 82, 9-Benzyl-2-(2,2-dioxo-2,3-dihydro-1H-2lambda*6*-benzo[c]thiophen-5-ylamino)-5-methyl-5,7,8,9-tetrahydro-pyrimido[4,5-b][1,4]diazepin-6-one] | < 1
CN1CCN(S(=O)(=O)c2ccc(Nc3ncc4c(n3)N(C3CCCC3)CCC(=O)N4C)cc2)CC1 [compound 105, 9-Cyclopentyl-5-methyl-2-[4-(4-methyl-piperazine-1-sulfonyl)-phenylamino]-5,7,8,9-tetrahydro-pyrimido[4,5-b][1,4]diazepin-6-one] | < 1
CN1C(=O)CCN(CC2CC2)c2nc(Nc3ccc4c(c3)CS(=O)(=O)C4)ncc21 [compound 114, 9-Cyclopropylmethyl-2-(2,2-dioxo-2,3-dihydro-1H-2lambda*6*-benzo[c]thiophen-5-ylamino)-5-methyl-5,7,8,9-tetrahydro-pyrimido[4,5-b][1,4]diazepin-6-one] | < 0.1
CC(C)CCN1CCC(=O)N(C)c2cnc(Nc3ccc4c(c3)CS(=O)(=O)C4)nc21 [compound 116, 2-(2,2-Dioxo-2,3-dihydro-1H-2lambda*6*- benzo[c]thiophen-5-ylamino)-5-methyl-9-(3-methyl-butyl)-5,7,8,9-tetrahydro-pyrimido[4,5-b][1,4]diazepin-6-one] | < 1
CN1C(=O)C2(CCCC2)CN(C2CCCC2)c2nc(Nc3ccc4c(c3)CS(=O)(=O)C4)ncc21 [compound 118, (9-Cyclopentyl-2-(2,2-dioxo-2,3-dihydro-1H-2lambda*6*-benzo[c]thiophen-5-ylamino)5-methyl-6-oxo-6,7,8,9-tetrahydro-5H-spiro[pyrimido[4,5-b][1,4]diazepin-3,1′-cyclopentane]] | < 1
CCC(CC)N1CCC(=O)N(CC)c2cnc(Nc3ccc4c(c3)CS(=O)(=O)C4)nc21 [compound 120, 2-(2,2-Dioxo-2,3-dihydro-1H-2lambda*6*- benzo[c]thiophen-5-ylamino)-5-ethyl-9-(1-ethyl-propyl)-5,7,8,9-tetrahydro-pyrimido[4,5-b][1,4]diazepin-6-one] | < 0.1
